# From the supplement of paper PMC10307832
# Legend:
# Test in all cases: relative viability (nuclei count vs DMSO), 5 days (fraction); higher = more cells survive
# [1] = tested on: 201T
# Outline: (§1)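 Lung cancer cell lines in 1536-well plates were dosed by pin tool the day after seeding, either with one drug alone or with a fixed anchor-drug dose plus five library-drug doses (not always all listed) in √10 steps. After 5 days, cells were fixed and their nuclei stained in one step (final 0.05% Triton X-100, 1% formaldehyde, 1 ug/ml Hoechst), then counted on 4× images. Relative viability is the nuclei count in treated wells divided by that in vehicle wells. Values are medians of duplicate plates.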
# [2] = tested on: BEN
# Outline: as §1
# [3] = tested on: EMC-BAC-2
# Outline: as §1
# [4] = tested on: HARA
# Outline: as §1
# [5] = tested on: HCC-44
# Outline: as §1
# [6] = tested on: LCLC-103H
# Outline: as §1
# [7] = tested on: LOU-NH91
# Outline: as §1
# [8] = tested on: NCI-H1395
# Outline: as §1
# [9] = tested on: NCI-H1993
# Outline: as §1
# [10] = tested on: NCI-H2023
# Outline: as §1
# [11] = tested on: NCI-H2087
# Outline: as §1
# [12] = tested on: NCI-H2126
# Outline: as §1
# [13] = tested on: NCI-H2347
# Outline: as §1
# [14] = tested on: NCI-H23
# Outline: as §1
# [15] = tested on: NCI-H3122
# Outline: as §1
# [16] = tested on: NCI-H441
# Outline: as §1
# [17] = tested on: NCI-H522
# Outline: as §1
# [18] = tested on: NCI-H596
# Outline: as §1
# [19] = tested on: NCI-H647
# Outline: as §1
# [20] = tested on: NCI-H650
# Outline: as §1
# [21] = tested on: NCI-H838
# Outline: as §1
smiles,measurement,setting,value
COc1nc(C)cnc1NS(=O)(=O)c1cccnc1-c1ccc(-c2nnco2)cc1 [Zibotentan] + Nc1nc2[nH]cc(CCc3ccc(C(=O)N[C@@H](CCC(=O)O)C(=O)O)cc3)c2c(=O)[nH]1 [Pemetrexed] (partner 0.2 µM),relative viability,[1]; first compound 0.08 µM,0.327
same,relative viability,[1]; first compound 0.253 µM,0.355
same,relative viability,[1]; first compound 0.8 µM,0.247
same,relative viability,[1]; first compound 2.53 µM,0.323
same,relative viability,[2]; first compound 0.08 µM,0.781
same,relative viability,[2]; first compound 0.253 µM,0.707
same,relative viability,[2]; first compound 0.8 µM,0.774
same,relative viability,[2]; first compound 2.53 µM,0.722
same,relative viability,[3]; first compound 0.08 µM,0.457
same,relative viability,[3]; first compound 0.8 µM,0.406
same,relative viability,[3]; first compound 2.53 µM,0.44
same,relative viability,[4]; first compound 0.08 µM,0.247
same,relative viability,[4]; first compound 0.8 µM,0.183
same,relative viability,[4]; first compound 2.53 µM,0.292
same,relative viability,[5]; first compound 0.08 µM,0.629
same,relative viability,[5]; first compound 0.253 µM,0.657
same,relative viability,[5]; first compound 0.8 µM,0.589
same,relative viability,[5]; first compound 2.53 µM,0.666
same,relative viability,[6]; first compound 0.08 µM,0.428
same,relative viability,[6]; first compound 0.253 µM,0.471
same,relative viability,[6]; first compound 0.8 µM,0.429
same,relative viability,[6]; first compound 2.53 µM,0.533
same,relative viability,[7]; first compound 0.08 µM,0.366
same,relative viability,[7]; first compound 0.253 µM,0.357
same,relative viability,[7]; first compound 0.8 µM,0.369
same,relative viability,[7]; first compound 2.53 µM,0.408
same,relative viability,[8]; first compound 0.08 µM,1.01
same,relative viability,[8]; first compound 0.253 µM,0.801
same,relative viability,[8]; first compound 0.8 µM,0.81
same,relative viability,[8]; first compound 2.53 µM,0.901
same,relative viability,[9]; first compound 0.08 µM,0.695
same,relative viability,[9]; first compound 0.253 µM,0.557
same,relative viability,[9]; first compound 0.8 µM,0.557
same,relative viability,[9]; first compound 2.53 µM,0.545
same,relative viability,[10]; first compound 0.08 µM,0.243
same,relative viability,[10]; first compound 0.8 µM,0.225
same,relative viability,[10]; first compound 2.53 µM,0.251
same,relative viability,[11]; first compound 0.08 µM,0.677
same,relative viability,[11]; first compound 0.253 µM,0.666
same,relative viability,[11]; first compound 0.8 µM,0.536
same,relative viability,[11]; first compound 2.53 µM,0.746
same,relative viability,[12]; first compound 0.08 µM,0.713
same,relative viability,[12]; first compound 0.253 µM,0.657
same,relative viability,[12]; first compound 0.8 µM,0.435
same,relative viability,[12]; first compound 2.53 µM,0.78
same,relative viability,[13]; first compound 0.08 µM,0.416
same,relative viability,[13]; first compound 0.253 µM,0.463
same,relative viability,[13]; first compound 0.8 µM,0.465
same,relative viability,[13]; first compound 2.53 µM,0.471
same,relative viability,[14]; first compound 0.08 µM,0.738
same,relative viability,[14]; first compound 0.253 µM,0.395
same,relative viability,[14]; first compound 0.8 µM,0.456
same,relative viability,[14]; first compound 2.53 µM,0.915
same,relative viability,[15]; first compound 0.08 µM,0.204
same,relative viability,[15]; first compound 0.253 µM,0.199
same,relative viability,[15]; first compound 0.8 µM,0.308
same,relative viability,[15]; first compound 2.53 µM,0.219
same,relative viability,[16]; first compound 0.08 µM,0.284
same,relative viability,[16]; first compound 0.253 µM,0.298
same,relative viability,[16]; first compound 0.8 µM,0.262
same,relative viability,[16]; first compound 2.53 µM,0.249
same,relative viability,[17]; first compound 0.08 µM,0.909
same,relative viability,[17]; first compound 0.253 µM,1.03
same,relative viability,[17]; first compound 0.8 µM,0.881
same,relative viability,[17]; first compound 2.53 µM,0.758
same,relative viability,[18]; first compound 0.08 µM,0.455
same,relative viability,[18]; first compound 0.253 µM,0.429
same,relative viability,[18]; first compound 0.8 µM,0.522
same,relative viability,[18]; first compound 2.53 µM,0.501
same,relative viability,[19]; first compound 0.08 µM,0.165
same,relative viability,[19]; first compound 0.253 µM,0.171
same,relative viability,[19]; first compound 0.8 µM,0.181
same,relative viability,[19]; first compound 2.53 µM,0.201
same,relative viability,[20]; first compound 0.08 µM,0.947
same,relative viability,[20]; first compound 0.253 µM,0.927
same,relative viability,[20]; first compound 0.8 µM,0.905
same,relative viability,[20]; first compound 2.53 µM,0.977
same,relative viability,[21]; first compound 0.08 µM,0.249
same,relative viability,[21]; first compound 0.253 µM,0.234
same,relative viability,[21]; first compound 0.8 µM,0.23
same,relative viability,[21]; first compound 2.53 µM,0.252
